Experimental data reported in the NIST ThermoML archive (doi:10.1016/j.jct.2005.12.005).

Key:
[1] = xn = mol fraction of the nth substance listed; settings: 101 kPa, Liquid; for speed of sound: Sing-around technique in a fixed-path interferometer
[2] = refractive index (Na D-line) (dimensionless); xn = mol fraction of the nth substance listed; settings: 101 kPa, Liquid

Cc1ccccc1 [toluene] + CC1CCCCC1
x2 = 0
Settings | mass density, 298.15 K [kg/m3] | mass density, 303.15 K [kg/m3] | mass density, 308.15 K [kg/m3] | refractive index, 298.15 K | refractive index, 303.15 K | refractive index, 308.15 K | speed of sound, 298.15 K [m/s] | viscosity, 298.15 K [mPa·s] | viscosity, 303.15 K [mPa·s] | viscosity, 308.15 K [mPa·s]
[1] | 862.3 | 857.6 | 852.9 | – | – | – | 1314 | 0.559 | 0.526 | 0.497
[2] | – | – | – | 1.4931 | 1.4902 | 1.4874 | – | – | – | –

CC1CCCCC1 [methylcyclohexane] + Cc1ccc(C)cc1
Settings | mass density, 298.15 K [kg/m3] | mass density, 303.15 K [kg/m3] | mass density, 308.15 K [kg/m3] | refractive index, 298.15 K | refractive index, 303.15 K | refractive index, 308.15 K | speed of sound, 298.15 K [m/s] | viscosity, 298.15 K [mPa·s] | viscosity, 303.15 K [mPa·s] | viscosity, 308.15 K [mPa·s]
[1], x1 = 0.0993 | 846.6 | 842.3 | 837.9 | – | – | – | 1315 | 0.597 | 0.566 | 0.536
[1], x1 = 0.2037 | 836.2 | 831.8 | 827.5 | – | – | – | 1303 | 0.59 | 0.557 | 0.523
[1], x1 = 0.3028 | 826.4 | 822.1 | 817.8 | – | – | – | 1293 | 0.587 | 0.553 | 0.52
[1], x1 = 0.4047 | 816.7 | 812.3 | 808 | – | – | – | 1282 | 0.586 | 0.553 | 0.52
[1], x1 = 0.5382 | 804.2 | 799.9 | 795.5 | – | – | – | 1268 | 0.593 | 0.559 | 0.525
[1], x1 = 0.6035 | 798.3 | 794 | 789.6 | – | – | – | 1261 | 0.597 | 0.562 | 0.528
[1], x1 = 0.703 | 789.5 | 785.1 | 780.8 | – | – | – | 1250 | 0.608 | 0.573 | 0.537
[1], x1 = 0.8037 | 780.8 | 776.5 | 772.2 | – | – | – | 1239 | 0.625 | 0.588 | 0.55
[1], x1 = 0.8981 | 773 | 768.7 | 764.4 | – | – | – | 1228 | 0.646 | 0.607 | 0.569
[1], x1 = 1 | 765 | 760.7 | 756.3 | – | – | – | 1217 | 0.676 | 0.631 | 0.59
[2], x1 = 0.0993 | – | – | – | 1.4848 | 1.482 | 1.4793 | – | – | – | –
[2], x1 = 0.2037 | – | – | – | 1.4767 | 1.4743 | 1.4718 | – | – | – | –
[2], x1 = 0.3028 | – | – | – | 1.469 | 1.4668 | 1.4646 | – | – | – | –
[2], x1 = 0.4047 | – | – | – | 1.4615 | 1.4594 | 1.4572 | – | – | – | –
[2], x1 = 0.5382 | – | – | – | 1.4519 | 1.4498 | 1.4476 | – | – | – | –
[2], x1 = 0.6035 | – | – | – | 1.4473 | 1.4451 | 1.443 | – | – | – | –
[2], x1 = 0.703 | – | – | – | 1.4405 | 1.4384 | 1.4362 | – | – | – | –
[2], x1 = 0.8037 | – | – | – | 1.4338 | 1.4314 | 1.429 | – | – | – | –
[2], x1 = 0.8981 | – | – | – | 1.4279 | 1.4253 | 1.4228 | – | – | – | –
[2], x1 = 1 | – | – | – | 1.4217 | 1.4192 | 1.4163 | – | – | – | –

Cc1cc(C)cc(C)c1 [1,3,5-trimethylbenzene] + CC1CCCCC1
Settings | mass density, 298.15 K [kg/m3] | mass density, 303.15 K [kg/m3] | mass density, 308.15 K [kg/m3] | refractive index, 298.15 K | refractive index, 303.15 K | refractive index, 308.15 K | speed of sound, 298.15 K [m/s] | viscosity, 298.15 K [mPa·s] | viscosity, 303.15 K [mPa·s] | viscosity, 308.15 K [mPa·s]
[1], x2 = 0 | 861.2 | 857.1 | 853 | – | – | – | 1346 | 0.667 | 0.622 | 0.586
[1], x2 = 0.1007 | 851.6 | 847.5 | 843.3 | – | – | – | 1328 | 0.653 | 0.612 | 0.577
[1], x2 = 0.1993 | 842 | 837.9 | 833.8 | – | – | – | 1312 | 0.638 | 0.6 | 0.569
[1], x2 = 0.3035 | 832 | 827.9 | 823.7 | – | – | – | 1295 | 0.629 | 0.592 | 0.559
[1], x2 = 0.4063 | 822 | 817.9 | 813.7 | – | – | – | 1280 | 0.622 | 0.584 | 0.553
[1], x2 = 0.4974 | 813.1 | 808.9 | 804.8 | – | – | – | 1267 | 0.62 | 0.603 | 0.547
[1], x2 = 0.6085 | 802.2 | 798.1 | 793.9 | – | – | – | 1253 | 0.621 | 0.582 | 0.548
[1], x2 = 0.7027 | 793.1 | 788.9 | 784.7 | – | – | – | 1244 | 0.627 | 0.588 | 0.553
[1], x2 = 0.7973 | 784 | 779.7 | 775.5 | – | – | – | 1235 | 0.638 | 0.598 | 0.566
[1], x2 = 0.902 | 774.1 | 769.8 | 765.6 | – | – | – | 1225 | 0.654 | 0.622 | 0.575
[2], x2 = 0 | – | – | – | 1.496 | 1.4936 | 1.4913 | – | – | – | –
[2], x2 = 0.1007 | – | – | – | 1.489 | 1.4865 | 1.4843 | – | – | – | –
[2], x2 = 0.1993 | – | – | – | 1.4817 | 1.4809 | 1.4771 | – | – | – | –
[2], x2 = 0.3035 | – | – | – | 1.474 | 1.473 | 1.4692 | – | – | – | –
[2], x2 = 0.4063 | – | – | – | 1.4663 | 1.4647 | 1.4614 | – | – | – | –
[2], x2 = 0.4974 | – | – | – | 1.4593 | 1.4565 | 1.4544 | – | – | – | –
[2], x2 = 0.6085 | – | – | – | 1.4508 | 1.4529 | 1.4459 | – | – | – | –
[2], x2 = 0.7027 | – | – | – | 1.4436 | 1.4421 | 1.4386 | – | – | – | –
[2], x2 = 0.7973 | – | – | – | 1.4363 | 1.4347 | 1.4312 | – | – | – | –
[2], x2 = 0.902 | – | – | – | 1.4285 | 1.4265 | 1.4233 | – | – | – | –
